Values of other authors in CN114831954A, “一种左氧氟沙星片” (priority 2022, dated 2022).

Key:
[1] = in vivo, po
[2] = tested on: Gram-positive and Gram-negative bacteria [革兰氏阳性菌和阴性菌]; details: background statement
[3] = background statement

CC1COc2c(N3CCN(C)CC3)c(F)cc3c(=O)c(C(=O)O)cn1c23 (stereo not shown) [氧氟沙星]
gastrointestinal adverse reactions [1]: 有胃肠不良反应 | antibacterial effect ([2]; Gram-positive and Gram-negative bacteria): 对革兰氏阳性菌和阴性菌均有光谱的效果 | concentration dependence of antibacterial effect [2]: 具有明显的浓度依赖性 | biological half-life [3]: ~6 h
